This assay concerns ESKAPE pathogens. Nature of the assay: MIC assay, bacteria, strain of the six not assignable or not specified. The following applies: one of the six ESKAPE strains, left to right order; MHB II, 18–24 h, 37 °C, OD600 nm, ≥90% inhibition, duplicates. The assay is classed as cell-based. An excerpt:
To evaluate the susceptibility of the different peptide sequences against clinical isolates of various bacterial pathogens, we used the minimum inhibitory concentration (MIC) assay. The MIC measures the efficacy of peptides in inhibiting bacterial growth. The specific MIC values of various peptides against Enterococcus […] ATCC19433, Staphylococcus aureus ATCC25923, Klebsiella pneumoniae ATCC43816, Acinetobacter baumannii AB5075, Pseudomonas aeruginosa PAO1, and Enterobacter species ATCC13048 were determined by measuring optical density at 600 nm (OD600 nm). […] The growth inhibition curves were used to estimate the MIC values.
Bacteria: The MIC was the lowest concentration of a drug, which inhibited the visible growth of a bacteria and could be determined by reading the absorption at 600 nm (OD600 nm) using a spectrophotometer. The peptides were subjected to antibacterial testing against gram‐positive and gram‐negative pathogens. All the ESKAPE pathogens (E. faecalis ATCC19433, S. aureus ATCC25923, K. pneumoniae ATCC43816, A. baumannii AB5075, P. aeruginosa PAO1, and E. aerogenes ATCC13048) were inoculated from nutrient agar plates to obtain a bacterial suspension by incubating the colony of bacteria in a flask containing 10 mL of Mueller Hinton broth II (MHB) at 37 °C for 24 h with gentle shaking (75 rpm). The bacterial suspensions were then diluted in MHB to 1 × 10^6 colony‐forming units (CFU) of bacteria mL^−1. Next, using serial dilutions in 96‐well plates, different concentrations of each peptide from 1.5–400 μM were prepared. 100 μL of peptide solutions at final concentration ranging between 0.75–200 μM were then added to a 96‐well plate containing 100 μL of diluted bacterial suspension. After 18–24 h incubation at 37 °C, the turbidity of the samples was observed, and the optical density of bacteria was measured using OD600 nm. All assays were performed in duplicates. The MICs were calculated as ≥90% inhibition of bacteria growth compared to the positive control wells.
For “PKWHKNKMFKFKRKF [MLWH98, peptide generated using algorithm, list 2]”, the “MIC, Table S7, 4th value printed in the line (strain column cannot be told)” value amounted to 200 µM. Regarding “PSKYAKIAIKFHKQI [MLWH61, peptide generated using algorithm, list 2]”, the “MIC, Table S7, 4th value printed in the line (strain column cannot be told)” value is listed as 50 µM. Under “QGWIKIILPHIRYIK [MLWH57, peptide generated using algorithm, list 2]” stands 25 µM. Under “VIYSIGLRIFNKIRP [MLWH99, peptide generated using algorithm, list 2]” stands 200 µM.

Source of the values: publication PMC12168616, “Machine Learning‐Assisted Prediction and Generation of Antimicrobial Peptides” (Small Science, 2025).
